Data published in patent US20250277247A1, “NUCLEIC ACID AMPLIFICATIONS” (priority 2012, published 2025).

What was measured:
[1] = NEAR reaction mixture, buffer pH 8 at room temperature, temperature increased to 56° C.; cited from earlier work
[2] = cited from earlier work
[3] = system: genomic DNA from Mycobacterium bovis BCG; assay type: biochemical, Mycobacterium bovis BCG (ATCC strain 190115); conditions: 15 mM EGTA, 15 mM MgSO4; 15 minutes at room temperature, then 56° C., monitored 40 minutes; 20 or 200 copies vs no template
[4] = system: purified influenza A viral RNA; assay type: biochemical; conditions: 14 mM EGTA, 15 mM MgSO4, 100 mM Tris-Cl; about 20 minutes at room temperature, then 56° C., monitored 10 minutes; 0 or 100 copies

NC(CO)(CO)CO [Tris, tris(hydroxymethyl)aminomethane]
pH of the temperature sensitive buffer [1]: < 7.4

O=S(=O)(O)CCN1CCN(CCS(=O)(=O)O)CC1 [PIPES, piperazine-N,N′-bis(2-ethanesulfonic acid)]
pKa (20° C.) ([2]; 20° C.): 6.80
pKa (25° C.) ([2]; 25° C.): 6.76
pKa (37° C.) ([2]; 37° C.): 6.66

O=C(O)CN(CCOCCOCCN(CC(=O)O)CC(=O)O)CC(=O)O [EGTA, Ethylene bis(oxyethylenenitrilo) tetraacetic acid]
Amplification (real-time fluorescence) [3]: significant amplification was observed
Amplification (real-time fluorescence) [4]: Amplification was observed only in the reactions that included both EGTA and 100 copies of viral RNA
